We go through seven compounds from publication PMC3694297, “Establishment of a simplified in vitro porcine blood–brain barrier model with high transendothelial electrical resistance” (Brain Research, 2013).

In data set [1] the test system is porcine brain endothelial cells (PBECs). Particulars: apical to basal, P.1 PBEC; line through passive compounds R^2=0.96.
Method: Permeability assays were performed on cell monolayers with TEER >500 Ω cm^2. […] At t=5 min, the inserts were transferred to the next well containing donor buffer. This procedure was repeated for all inserts at t=15 min and t=30 min. At the end of the experiment, samples were taken from each insert and well to scintillation vials. OptiPhase HiSafe 2 scintillation liquid was added to each vial and radioactivity was counted using a Canberra Packard Tricarb 1900 TR Liquid Scintillation Analyser.
Cleared volume was calculated using the following equation and plotted as a function of time:(1) Clearedvolume(μl)=MR(dpm)/CD(dpm/μl) where is the MR=amount of radio-labelled compound in the receiver compartment, dpm=disintegrations per minute, CD=concentration of the compound in the donor compartment.
All dpm values were corrected for background dpm. The slope of the clearance curve was obtained by linear regression and represents the PS (i.e. permeability × surface area) product. Apparent permeability (Papp, cm/s) was calculated using the following equation:(2) Papp(cm/s)=PSproduct(cm^3/s)/surfaceareaoftheinsert(cm^2)
The apparent permeability Papp was calculated according to Eq. (2) and plotted against the calculated Log Poctanol as a measure of lipophilicity of the compound.
The test system of data set [2] is cEND (an immortalised mouse brain endothelial cell line). Further details: method as in Förster et al. (2005). The settings on record: cEND cells treated with hydrocortisone; ref Förster et al. (2005); cited from earlier work.
Data set [3] has as its system hCMEC/D3, immortalised human brain microvascular endothelial cells. Further details: method as in Förster et al., 2008. Particulars: hCMEC/D3 treated with hydrocortisone; ref Förster et al., 2008; cited from earlier work.

As for `C=CCN1CC[C@]23c4c5ccc(O)c4O[C@H]2C(=O)CC[C@@]3(O)[C@H]1C5` [naloxone], the “Papp relative to the line of Papp vs. calculated Log Poctanol” value in data set [1] is recorded as “linear function of calculated Log Poctanol”.

Regarding `CC(C)NCC(O)COc1cccc2ccccc12` (stereo not drawn) [propranolol], in data set [1], the “Papp relative to the line of Papp vs. calculated Log Poctanol” value is listed as “linear function of calculated Log Poctanol”. Still for that read-out and setting: the same measure for `N[C@@H](CCC(=O)O)C(=O)O` [glutamate, L-glutamic acid]: “clear outliers below the line”; for `CC[C@]1(O)C[C@@H]2CN(CCc3c([nH]c4ccccc34)[C@@](C(=O)OC)(c3cc4c(cc3OC)N(C)[C@H]3[C@@](O)(C(=O)OC)[C@H](OC(C)=O)[C@]5(CC)C=CCN6CC[C@]43[C@@H]65)C2)C1` [vinblastine]: “clear outliers below the line”. On to `C[C@]12CCC(=O)C=C1CC[C@@H]1[C@@H]2[C@@H](O)C[C@@]2(C)[C@H]1CC[C@]2(O)C(=O)CO` [hydrocortisone], for which the “increase in TEER” value is on record as “threefold” in data set [2] and “three-fold” in data set [3]. The “increase in expression of occludin and claudin-5” value in data set [3] is on record as “over twofold”. `Cn1c(=O)c2c(ncn2C)n(C)c1=O` [caffeine]: the “Papp relative to the line of Papp vs. calculated Log Poctanol” value in data set [1] is recorded as “clear outliers above the line”. As to `CC(C)C[C@H](N)C(=O)O` [Leucine, L-leucine], the “Papp relative to the line of Papp vs. calculated Log Poctanol” value in data set [1] is “clear outliers above the line”.
